{"source": "ChEMBL document CHEMBL5375972", "about": "“Discovery of Novel 2,3-Dihydro-1H-indene-5-sulfonamide NLRP3 Inflammasome Inhibitors Targeting Colon as a Potential Therapy for Colitis” (J Med Chem, 2023)", "assay_type_in_all_cases": "functional, organism-based", "settings_in_all_cases": "time 9.0 day", "key": {"Mus musculus [1]": {"test_system": "Mus musculus", "assay": "Anti-inflammatory activity in DSS-induced ulcerative colitis C57BL/6 mouse model assessed as reduction in disease activity index (DAI) score at 10 mg/kg,ip administrated for 9 days"}, "Mus musculus [2]": {"test_system": "Mus musculus", "assay": "Anti-inflammatory activity in DSS-induced ulcerative colitis C57BL/6 mouse model assessed as increase in body weight at 10 mg/kg,ip administrated for 9 days"}, "Mus musculus [3]": {"test_system": "Mus musculus", "assay": "Anti-inflammatory activity in DSS-induced ulcerative colitis C57BL/6 mouse model assessed as reduction in histological colitis severity score at 10 mg/kg,ip administrated for 9 days"}, "Mus musculus [4]": {"test_system": "Mus musculus", "assay": "Anti-inflammatory activity in DSS-induced ulcerative colitis C57BL/6 mouse model assessed as increase in colon length at 10 mg/kg,ip administrated for 9 days"}}, "note": "The source made the active and inactive calls. The rule behind the calls is not given here.", "data": [{"compound": "CC(C)(O)c1coc(S(=O)(=O)NC(=O)Nc2c3c(cc4c2CCC4)CCC3)c1", "values": [{"measurement": "Activity", "setting": "Mus musculus [1]", "result": "Active"}, {"measurement": "Activity", "setting": "Mus musculus [2]", "result": "Active"}, {"measurement": "Activity", "setting": "Mus musculus [3]", "result": "inactive"}, {"measurement": "Activity", "setting": "Mus musculus [4]", "result": "Active"}]}]}
